According to US20240174681A1, “SALT AND CRYSTALLINE FORMS OF FGFR4 INHIBITOR AND USES THEREOF” (BETTA PHARMACEUTICALS CO., LTD, priority 2020, published 2024):
pIC50: −log10 of the molar value. Entries after “also recorded” stand apart in the source; their conditions may differ. Read-outs that look alike come from different tables or passages of the source.

How the values were obtained:
[1] = Hygroscopicity determination by dynamic vapor sorption (DVS); format: physicochemical; conditions: for Weight Gain for Vapor Absorption: DVS, 0% RH to 80% RH; for hygroscopicity (in words): under the test conditions
Procedure: The hygroscopicity of samples (which are multiple crystal forms shown in Table 14) was determined by a dynamic vapor sorption (DVS) meter. The samples were detected for changes of weight gains due to vapor absorption within the range of 0% RH (relative humidity) to 80% RH.

[2] = Stability determination of crystal forms (HPLC); format: physicochemical; conditions: for stability (in words): HPLC detection results
Procedure: Samples and experimental preparation: The amorphous form of the compound represented by Formula I and the crystal form A, maleate crystal form 1, maleate crystal form 2, phosphate crystal form 1 and adipate crystal form 1 of the compound represented by Formula I in appropriate amounts were tested for stability. Samples were taken at different time points separately for HPLC. The packages were polyester/aluminum/polyamide/polyethylene pharmaceutical composite films and bags.

[3] = Pharmacokinetic test of crystal forms in SD rats, oral; format: in vivo; conditions: 50 mg/kg, suspension in 0.5% CMC-Na
Procedure: Drug preparation: A maleate crystal form 1, a phosphate crystal form 1 and an adipate crystal form 1 were weighed separately, and each crystal form was prepared in a 0.5% CMC-Na solution into a to-be-tested suspension, where the final concentration of each compound was 5 mg/mL.
Test animals: SD rats were randomly divided into three groups, each group including three male rats, and the three groups were called a maleate group, a phosphate group and an adipate group, separately.
Administration and sample collection: The SD rats in each group were subjected to oral administration at a dosage of 50 mg/kg. Blood collection time: Blood samples were collected in EDTA-K pre-anticoagulation tubes after 0 h (before administration), 0.25 h, 0.5 h, 1 h, 2 hrs, 4 hrs, 7 hrs and 24 hrs. The plasma in each sample was isolated by being centrifuged at 4000 rpm for 10 min at 4° C. Plasma samples were collected and stored at −80° C. for analytical use. The concentration of a to-be-tested compound in plasma samples was analyzed by AB4000 API LC/MS in combination with HPLC, and the pharmacokinetic parameter of the to-be-tested compound was obtained by analyzing the plasma concentration-time data of each animal.

[4] = system: human liver cancer cells Hep3B xenograft; experiment: Hep3B xenograft tumor model; format: in vivo
Procedure: BALB/c nu/nu female mice were inoculated with 5×10^6 human liver cancer cells Hep3B subcutaneously in the right anterior scapula, where a volume ratio of a cell suspension to matrigel was 1:1 (0.2/mL/mouse). When an average tumor volume was 158 mm^3, the mice were randomly grouped according to a tumor size. The treatment group was administered with a solution of a to-be-tested compound prepared with an appropriate solvent, and the solvent control group was administered with a blank solvent. During treatment, the tumor volume was measured twice a week, and the tumor weight was determined after a last dose to determine the activity of the compound. A tumor growth inhibition (TGI) rate (%) was calculated by comparing the tumor volumes and weights of the treatment group and the solvent control group. Body weight measurement, as the routine determination of toxicity, has the same frequency as tumor volume measurement.

[5] = system: human liver cancer cells Hep3B; experiment: Cell proliferation assay (CellTiter-Glo); format: cell-based; conditions: 96 hrs incubation, CTG, read-out: IC50 of the Compound on Hep3B Cells
Procedure: The effect of the compound of the present disclosure on the proliferation of human liver cancer cells Hep3B cells was evaluated by an in vitro cell assay. CELL TITER-GLO (CTG) luminescence was used as a detection method in the assay, which can detect the number of living cells by quantitatively determining ATP. Since ATP participates in a variety of enzymatic reactions in organisms, the ATP is an indicator of the metabolism of living cells and its content directly reflects the number of cells and the cell state of cells. In the assay, CellTiter-Glo™ reagent was added to a cell culture medium to measure a luminescence value, the luminescence value is directly proportional to the amount of ATP, and ATP is positively correlated to the number of living cells, so cell viability can be inspected by detecting the ATP content.
A bottle of Hep3B cells in a logarithmic growth phase was taken, the cells were counted after digestion and resuspension and then inoculated into a 96-well plate after the cell density was adjusted, each well inoculated with 180 μL (1500 cells/well), and the plate was incubated for 24 hrs in a 37° C., 5% CO2 incubator. • (2) Administration to cells […]
An inhibition rate was calculated according to the luminescence value. […]

[6] = 40° C./75% RH, packaged, day 12
[7] = 40° C./75% RH, packaged, day 5, listed as Crystal form A of the compound represented by Formula I
[8] = 40° C./75% RH, packaged, day 20
[9] = day 0, listed as Crystal form A of the compound represented by Formula I

C=CC(=O)NC1CCOCC1Nc1ncc2c(n1)-c1cc(C)cnc1N(c1c(Cl)c(OC)cc(OC)c1Cl)C2.O=C(O)C(O)C(O)C(=O)O [L-tartrate crystal form 1]
Weight Gain for Vapor Absorption [1]: 0.07%
hygroscopicity (in words) [1]: non-hygroscopic

C=CC(=O)N[C@H]1CCOC[C@H]1Nc1ncc2c(n1)-c1cc(C)cnc1N(c1c(Cl)c(OC)cc(OC)c1Cl)C2 [Amorphous form of the compound represented by Formula I]
Weight Gain for Vapor Absorption [1]: 6.53%
hygroscopicity (in words) [1]: hygroscopic
API Content ([2]; 25° C./75% RH, open, day 10): 97.21%
Changed Maximum Single Impurity ([2]; 25° C./75% RH, open, day 10): 1.26%
API Content ([2]; 40° C., open, day 10): 97.45%
Changed Maximum Single Impurity ([2]; 40° C., open, day 10): 1.15%
stability (in words) [2]: poor stability
API Content ([2]; day 0): 98.30%
Changed Maximum Single Impurity ([2]; day 0): 0.41%

C=CC(=O)NC1CCOCC1Nc1ncc2c(n1)-c1cc(C)cnc1N(c1c(Cl)c(OC)cc(OC)c1Cl)C2.O=C(O)C=CC(=O)O (centres unmarked) [Maleate crystal form 1]
hygroscopicity (in words) [1]: low hygroscopicity
AUClast [3]: 8355 ng·h/mL
Cmax [3]: 2713 ng/mL
API Content ([2]; 40° C./75% RH, packaged, day 5): 99.48%
Changed Maximum Single Impurity ([2]; 40° C./75% RH, packaged, day 5): 0.26%
API Content [2, 6]: 99.34%
Changed Maximum Single Impurity [2, 6]: 0.28%
stability (in words) [2]: relatively good stability
API Content ([2]; day 0): 99.62%
Changed Maximum Single Impurity ([2]; day 0): 0.2%

C=CC(=O)NC1CCOCC1Nc1ncc2c(n1)-c1cc(C)cnc1N(c1c(Cl)c(OC)cc(OC)c1Cl)C2.O=C(O)C=CC(=O)O (centres unmarked) [Maleate crystal form 2]
Weight Gain for Vapor Absorption [1]: 6.64%
hygroscopicity (in words) [1]: hygroscopic
API Content ([2]; 25° C./75% RH, open, day 10): 98.61%
Changed Maximum Single Impurity ([2]; 25° C./75% RH, open, day 10): 1.1%
API Content ([2]; 40° C., open, day 10): 99.32%
Changed Maximum Single Impurity ([2]; 40° C., open, day 10): 0.48%
stability (in words) [2]: poor stability
API Content ([2]; day 0): 99.63%
Changed Maximum Single Impurity ([2]; day 0): 0.29%

C=CC(=O)N[C@H]1CCOC[C@H]1Nc1ncc2c(n1)-c1cc(C)cnc1N(c1c(Cl)c(OC)cc(OC)c1Cl)C2 [Crystal form A]
Weight Gain for Vapor Absorption [1]: 0.03%
hygroscopicity (in words) [1]: non-hygroscopic; also recorded: low hygroscopicity
API Content ([2]; 25° C./92.5% RH, open, day 20): 99.32%
Changed Maximum Single Impurity ([2]; 25° C./92.5% RH, open, day 20): 0.17%
API Content [2, 7]: 99.25%
Changed Maximum Single Impurity [2, 7]: 0.19%
API Content [2, 8]: 99.47%
Changed Maximum Single Impurity [2, 8]: 0.17%
API Content ([2]; 60° C., open, day 12): 99.14%
Changed Maximum Single Impurity ([2]; 60° C., open, day 12): 0.24%
stability (in words) [2]: relatively good stability
API Content [2, 9]: 99.16%
Changed Maximum Single Impurity [2, 9]: 0.19%

C=CC(=O)N[C@H]1CCOC[C@H]1Nc1ncc2c(n1)-c1cc(C)cnc1N(c1c(Cl)c(OC)cc(OC)c1Cl)C2 [Compound represented by Formula I, N-((3S,4S)-3-((6-(2,6-dichloro-3,5-dimethoxyphenyl)-9-methyl-5,6-dihydropyrimido[5,4-c][1,8]naphthyridin-2-yl)amino)tetrahydro-2H-pyran-4-yl)acrylamide]
inhibition rate on the tumor volume growth of Hep3B ([4]; 50 mg/kg BID×14): 73.02%
inhibition rate on the tumor weight growth of HepB ([4]; 50 mg/kg BID×14): 84.76%
inhibition rate on the tumor volume growth of Hep3B ([4]; 100 mg/kg BID×14): 86.26%
inhibition rate on the tumor weight growth of HepB ([4]; 100 mg/kg BID×14): 92.27%
inhibition rate on the tumor volume growth of Hep3B ([4]; 200 mg/kg BID×14): 90.26%
inhibition rate on the tumor weight growth of HepB ([4]; 200 mg/kg BID×14): 98.15%
body weight loss (routine determination of toxicity) ([4]; during the entire assay, treatment doses 50-200 mg/kg BID×14): none of the animals administered with the compound represented by Formula I showed an obvious weight loss
pIC50 [5]: 8.29

C=CC(=O)N[C@H]1CCOC[C@H]1Nc1ncc2c(n1)-c1cc(C)cnc1N(c1c(Cl)c(OC)cc(OC)c1Cl)C2 [Phosphate crystal form 1]
Weight Gain for Vapor Absorption [1]: 0.19%
hygroscopicity (in words) [1]: non-hygroscopic; also recorded: low hygroscopicity
AUC(0-t) ([3]; male, rat, plasma): 6890 ng·h/mL
Cmax ([3]; male, rat, plasma, read-out: Cmax): 1140 ng/mL
API Content ([2]; 40° C./75% RH, packaged, day 5): 99.39%
Changed Maximum Single Impurity ([2]; 40° C./75% RH, packaged, day 5): 0.15%
API Content [2, 6]: 99.56%
Changed Maximum Single Impurity [2, 6]: 0.11%
stability (in words) [2]: relatively good stability
API Content ([2]; day 0): 99.32%
Changed Maximum Single Impurity ([2]; day 0): 0.15%
